Measurements published in patent publication US11427552B2, “Heterocyclic compounds useful in the treatment of disease” (EPIGEN BIOSCIENCES, INC., priority 2013, dated 2022).

molecular target: T1, LPA1R (Homo sapiens, UniProt Q92633); test: LPA1R Ca2+ flux functional assay (antagonist mode, FLIPR); type: cell-based; conditions: inhibition of LPA-stimulated Ca2+ flux, LPA at EC80, LPA1R expressing cells (Millipore); read-out: LPA1 R Antagonist Activity
T1 construct: host or cells: LPA1R expressing cells (Millipore, GPCR Profiler)
T1 sequence (Q92633 whole entry): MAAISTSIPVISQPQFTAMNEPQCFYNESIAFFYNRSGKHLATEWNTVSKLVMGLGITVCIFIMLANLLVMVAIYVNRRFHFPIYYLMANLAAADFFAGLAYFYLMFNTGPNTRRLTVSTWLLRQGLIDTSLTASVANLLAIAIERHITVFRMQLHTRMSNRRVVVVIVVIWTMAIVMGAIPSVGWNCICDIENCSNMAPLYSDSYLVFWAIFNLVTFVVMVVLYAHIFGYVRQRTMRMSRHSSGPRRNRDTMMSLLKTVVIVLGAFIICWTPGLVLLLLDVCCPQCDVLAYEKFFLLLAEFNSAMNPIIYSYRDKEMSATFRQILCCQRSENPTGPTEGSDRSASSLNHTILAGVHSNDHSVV
Protocol: Inhibition of LPA-stimulated Ca^2+ flux was used to assess compound potency using FLIPR technology in a 96 well plate format. The assay buffer used was a modified Hanks Balanced Salt Solution (HBSS) where HBSS was supplemented to contain 20 mM HEPES and 2.5 mM Probenecid at pH7.4 (Millipore, GPCR Profiler®). LPA1R expressing cells (Millipore) were plated and prepared 24 hours prior to assay of test articles. Ca^2+ ion flux was assessed from fluorescence of a Fluo-based No Wash Ca^2+ dye. Antagonist data are generated from plates with LPA concentrations sufficient to generate 80% efficacy [EC80]. Percentage inhibition was calculated from a reduction of efficacy according to concentration of compounds of Formula I-VI. For dose responses the inhibition data was used to calculate compound IC50. The agonist assay was conducted on a FLIPR^TETRA instrument where the test compound(s), vehicle controls, and reference agonist were added to the assay plate after a fluorescence baseline was established. The agonist assay was a total of 180 seconds and was used to assess each compound's ability to activate each GPCR assayed. Upon completion of the agonist assay, the assay plate was removed from the FLIPR^TETRA and incubated at 25° C. for seven (7) minutes. After the incubation period, the assay plate was placed back in the FLIPR^TETRA and the antagonist assay was initiated. Using EC80 potency values determined during the agonist assay, all pre-incubated sample compound wells were challenged with EC80 concentration of reference agonist after establishment of a fluorescence baseline. The antagonist assay was conducted using the same assay plate that was used for the agonist assay. The antagonist assay was conducted on a FLIPR^TETRA instrument where 9 vehicle controls and EC80 concentration of reference agonist were added to appropriate wells. The antagonist assay was a total of 180 seconds and was used to assess each compound's ability to inhibit each GPCR assayed. All assay plate data were subjected to appropriate baseline corrections. After baseline corrections were applied, maximum fluorescence values were exported and data processed to calculate percentage activation (relative to Emax reference agonist and vehicle control values), percentage inhibition (relative to EC80 and vehicle control values), and additional statistical values (i.e. Z′, percentage variation between replicate data values) to assess the quality of each plate. Where assay plate data were rejected, additional experiments were conducted. All dose response curves were generated using GraphPad Prism. The curves were fit by utilizing “Sigmoidal Dose Response (Variable Slope)” equation where the bottom parameter was fixed to “0.” Where appropriate, the top parameter was fixed to “100” to better predict potency values when a full curve was not generated by the concentrations assayed.

Question: `C[C@@H](OC(=O)Nc1c(F)cnn1-c1ccc(-c2ccc(C3(C(=O)O)CC3)cc2)cc1)c1ccccc1Cl` [Example 53, (R)-1-(4′-{5-[1-(2-Chloro-phenyl)-ethoxycarbonylamino]-4-fluoro-pyrazol-1-yl}-biphenyl-4-yl)-cyclopropanecarboxylic Acid] was tested. Which IC50 did it give?
Answer: < 300 nM

Question: `C[C@@H](OC(=O)Nc1c(C(F)(F)F)cnn1-c1ccc(-c2ccc(C3(C(=O)O)CC3)cc2)cc1)c1ccccc1` [Example 54, (R)-1-{4′-[5-(1-Phenyl-ethoxycarbonylamino)-4-trifluoromethyl-pyrazol-1-yl]-biphenyl-4-yl}-cyclopropanecarboxylic Acid] was tested. Which IC50 did it give?
Answer: 300 to 1000 nM

Question: `C[C@@H](OC(=O)Nc1c(C(F)(F)F)cnn1-c1ccc(-c2ccc(C3(C(=O)O)CC3)cc2F)cc1)c1ccccc1` [Example 55, (R)-1-{2-Fluoro-4′-[5-(1-phenyl-ethoxycarbonylamino)-4-trifluoromethyl-pyrazol-1-yl]-biphenyl-4-yl}-cyclopropanecarboxylic Acid] was tested. Which IC50 did it give?
Answer: 300 to 1000 nM

Question: How did the IC50 turn out when `C[C@@H](OC(=O)Nc1ccnn1-c1ccc(-c2ccc(C3(C(=O)O)CC3)cc2)nc1)c1ccccc1` [Example 56, (R)-1-(4-{5-[5-(1-Phenyl-ethoxycarbonylamino)-pyrazol-1-yl]-pyridin-2-yl}-phenyl)-cyclopropanecarboxylic Acid] was run?
Answer: < 300 nM

Question: With “(R)-2-(4-{4-[(R)-1-(2-Chloro-phenyl)-ethoxycarbonylamino]-3-methyl-isoxazol-5-yl}-benzoylamino)-3-phenyl-propionic Acid [Example 20]” as the compound, how does the IC50 read?
Answer: < 300 nM

Question: “(R)-3-(4-bromophenyl)-2-[[4-[1,5-dimethyl-4-((R)-1-phenylethoxycarbonyl-amino)pyrazol-3-yl]benzoyl]amino]propanoic acid [Example 12]” was tested. Which IC50 did it give?
Answer: > 50000 nM
